Read-outs that look alike come from different tables or passages of the source.
Tested on: phosphorylation of Histone H3 in HeLa cells
Assay: HeLa cell 1-hour phospho-histone assay
Format: cell-based
Conditions: Homo sapiens, % of cells pHH3 positive, read-out: inhibitory activity (EC50) in the phospho-histone H3 assay
Experimental: HeLa Cell 1-Hour Phospho-Histone Assay
The purpose of this assay is to test the inhibitory effect of Aurora compounds with respect to phosphorylation of Histone H3 in the cellular context. HeLa cells (9×10^4/well) are plated in black 96-well flat-bottom tissue culture plates and incubated for 40 hours prior to compound addition. Compounds are serially diluted in DMSO, followed by dilution into MEM containing 10 mM HEPES; 10 ul/well of diluted compounds are added to cells (0.5% DMSO final). Cells are incubated for 1 hour at 37° C. in 5% CO2. Cells are then fixed with 3.7% formaldehyde for 10 minutes, washed with wash buffer (1% goat serum and 0.1% Tween 20 in PBS), then permeabilized with 0.5% Triton X in PBS for 15 minutes. After washing with wash buffer, cells are incubated with primary antibody (Upstate #06-507 anti-phospho-histone (Ser 10) antibody (pHH3) for 1 hour at 10 ug/ml. After 2 washes with wash buffer, cells are incubated with secondary antibody (Molecular Probes #A11034 goat anti-rabbit Alexa-488 for 1 hour at 1 ug/ml+Hoechst 33342 nuclear dye at 1 ug/ml (Molecular Probes). Cells are washed 2 times with wash buffer, and buffer replaced with PBS. Plates are scanned on the Cellomics Array Scan (6 fields, ˜2000 cells/well) and % of cells that are pHH3 positive were calculated using the Cellomics algorithm.

Row | EC50 | EC50 (unit inferred) | SMILES
1 | < 10 µM | < 1 µM | CNc1nccc(-c2cccnc2Oc2ccc(Nc3nnc(-c4cc(C)cs4)c4c3CCC4)cc2)n1 [Example 122, N-(4-((3-(2-(methylamino)-4-pyrimidinyl)-2-pyridinyl)oxy)phenyl)-4-(4-methyl-2-thienyl)-6,7-dihydro-5H-cyclopenta[d] pyridazin-1-amine]
2 | < 10 µM | < 1 µM | CNc1nccc(-c2cccnc2Oc2ccc(Nc3nnc(-c4ccccc4)c4c3CCCC4)cc2)n1 [Example 123, N-(4-((3-(2-(methylamino)-4-pyrimidinyl)-2-pyridinyl)oxy)phenyl)-4-phenyl-5,6,7,8-tetrahydro-1-phthalazinamine]

Reference: US8686155B2, “Aurora kinase modulators and method of use” (Amgen Inc., priority 2006, dated 2014)
